Experimental findings from patent US6531496B1 (Bayer Aktiengesellschaft, priority 1999, dated 2003) are described below.

What is called chromatographic logP is a lipophilicity value derived from retention on a column.

Structures are written as SMILES. In brackets after ≈: the same amount, converted by molar mass. A value given as a limit tells only on which side of the number the result lay.

One series deals with Plasmopara viticola. Nature of the series: Plasmopara test (grapevine)/protective. In kind it is in vivo. As to conditions: 144 h, protective, evaluated 6 days after inoculation, read-out: Efficacy in %. As for the experimental part: Plasmopara Test (Grapevine)/Protective Solvent: 47 parts by weight of acetone Emulsifier: 3 parts by weight of alkylaryl polyglycol ether To prepare a suitable active compound preparation, 1 part by weight of active compound is mixed with the stated amounts of solvent and emulsifier, and the concentrate is diluted with water to the desired concentration. To test for protective activity, young plants are sprayed with the active compound preparation at the application rate stated. After the spray coating has dried on, the plants are inoculated with an aqueous spore suspension of Plasmopara viticola and then remain for 1 day in an incubation cabinet at approx. 20° C. and a relative atmospheric humidity of 100%. […] The plants are then moistened and placed in an incubation cabinet for 1 day.

The next series deals with Venturia inaequalis. Nature of the series: Venturia test (apple)/protective. In kind it is in vivo. As to conditions: 288 h, protective, evaluated 12 days after inoculation, read-out: Efficacy in %. As for the experimental part: Venturia Test (Apple)/Protective Solvent: 47 parts by weight of acetone Emulsifier: 3 parts by weight of alkylaryl polyglycol ether To prepare a suitable active compound preparation, 1 part by weight of active compound is mixed with the stated amounts of solvent and emulsifier, and the concentrate is diluted with water to the desired concentration. To test for protective activity, young plants are sprayed with the active compound preparation at the application rate stated. After the spray coating has dried on, the plants are inoculated with an aqueous conidial suspension of the apple scab pathogen Venturia inaequalis and then remain for 1 day in an incubation cabinet at approx. 20° C. and 100% relative atmospheric humidity.

Series [1] is described as follows: logP by HPLC (EEC Directive 79/831 Annex V. A8, gradient method). In kind it is physicochemical. As to conditions: gradient of acetonitrile/0.1% aqueous phosphoric acid; HPLC, gradient method, acetonitrile/0.1% aqueous phosphoric acid; Table 1.
The subject of series [2] is green peach aphid (Myzus persicae). Nature of the series: Myzus test. In kind it is in vivo. The following applies: active compound concentration 0.01%. As for the experimental part: Solvent: 6 parts by weight of dimethylformamide
67 parts by weight of methanol
Emulsifier: 2 parts by weight of alkylaryl polyglcol ether
To prepare a suitable active compound preparation, 1 part by weight of active compound is mixed with the stated amount of solvent and the stated amount of emulsifier, and the concentrate is diluted with emulsifier-containing water to the desired concentrations.
Field bean (Vicia faba) seedlings which are infested with the green peach aphid (Myzus persicae) are immersed into an active compound preparation of the desired concentration and placed into a plastic box.
After the desired period of time, the destruction is determined in %. 100% means that all the animals have been killed; 0% means that none of the animals have been killed.

For series [3], the system named is greenhouse red spider mite (Tetranychus urticae). As to the kind of experiment: Tetranychus test (OP-resistant/immersion treatment). It counts as in vivo. The following applies: active compound concentration 0.01%. As for the experimental part:
Tetranychus Test (OP-resistant/Immersion Treatment)
Solvent: 3 parts by weight of dimethylformamide
Emulsifier: 1 part by weight of alkylaryl polyglycol ether
To prepare a suitable active compound preparation, 1 part by weight of active compound is mixed with the stated amount of solvent and the stated amount of emulsifier, and the concentrate is diluted with water to the desired concentrations.
Bean plants (Phaseolus vulgaris) which are severely infested by all stages of the greenhouse red spider mite (Tetranychus urticae) are immersed into an active compound preparation of the desired concentration.
After the desired time, the efficacy is determined in %. 100% means that all the spider mites have been killed; 0% means that none of the spider mites have been killed.

A further series relates to Aspergillus Niger. Nature of the series: Minimum inhibitory concentration on malt extract agar. It counts as cell-based. As to conditions: 2 weeks at 28° C. The method, then: (§1) To confirm the activity against fungi (Penicillium brevicaule, Chaetomium globosum, Aspergillus Niger), the minimum inhibitory concentrations (MICs) of agents according to the invention are determined:
(§2) Active compounds according to the invention are added in concentrations of from 0.1 mg/l to 5 000 mg/l to an agar prepared using malt extract. […] The MIC is the lowest concentration of active compound at which no growth whatsoever by the microbial species used occurs; it is indicated in the table which follows.

In another series the test system is Chaetomium globosum. The description is as above. It counts as cell-based. The following applies: 2 weeks at 28° C. As for the experimental part:
as §1, §2

The test system of the next series is Penicillium brevicaule. The description is as above. In kind it is cell-based. As to conditions: 2 weeks at 28° C.; for MIC: Penicillium, 336 h, read-out: Minimum inhibitory concentrations Penicillium brevicaule. The method, then:
as §1, §2

A further series has as its system Plutella. Nature of the series: Plutella test/synthetic feed. It counts as in vivo. The following applies: active compound concentration 0.1%, after 7 days. As for the experimental part:
Plutella Test/Synthetic Feed Solvent: 100 parts by weight of acetone […] 1900 parts by weight of methanol To prepare a suitable active compound preparation, 1 part by weight of active compound is mixed with the stated amount of solvent and the concentrate is diluted with methanol to the desired concentration. A stated amount of active compound preparation of the desired concentration is pipetted onto a standardized amount of synthetic feed. After the methanol has evaporated, the lid of a film box, populated with approx. 100 Plutella eggs, is placed over each cavity. The freshly hatched larvae crawl onto the treated synthetic feed. After the desired time, the destruction is determined in %. 100% means that all the animals have been killed; 0% means that none of the animals have been killed.

On to `CC(=O)c1cccc(OC2=NS(=O)(=O)CS2)c1` [Example 40], for which the pest or weed control at 250 g/ha in the series with Plasmopara viticola and with Venturia inaequalis was at least 90% throughout. The compound also gave a chromatographic logP in series [1] of 1.73. Moreover, the “Destruction in % after 6^d” value in series [2] was 90%.
As for `CO/N=C(/C)c1ccc(OC2=NS(=O)(=O)CS2)cc1` [Example 20], the “Destruction in % after 7^h” value in [3] (after 7^h) was 95%. Further, the “destruction after 7 days” value in [3] (after 7 days) turned out to be 95%. The same compound came in with a chromatographic logP in [1] of 2.62.
In series [1], `C/C(=N/OCc1ccccc1)c1ccc(OC2=NS(=O)(=O)CS2)cc1` [Example 22] displayed a chromatographic logP of 3.67. The “Destruction in % after 6^d” value in series [2] is 100%.
Regarding `O=S1(=O)CSC(Oc2cccc(Cl)c2)=N1` [Example 94], the pest or weed control at 250 g/ha in the series on Venturia inaequalis is at least 90%. Moreover, the “Minimum inhibitory concentrations Aspergillus Niger” value in the series on Aspergillus Niger amounted to 100 ppm. In addition, in the series on Chaetomium globosum, the “Minimum inhibitory concentrations Chaetomium globosum” value is 100 ppm. In the series on Penicillium brevicaule, the “Minimum inhibitory concentrations Penicillium brevicaule” value turned out to be 20 ppm and the MIC was 10 to 100 µg/mL (≈ 37.9 to 379 µM).
Take `O=S1(=O)CSC(Oc2ccc(Cl)c(Cl)c2)=N1` [Example 100]: the pest or weed control at 250 g/ha in the series with Plasmopara viticola and in the series with Venturia inaequalis was at least 90% in each case. For the same compound, the “Minimum inhibitory concentrations Aspergillus Niger” value with Aspergillus Niger came to 100 ppm. The “Minimum inhibitory concentrations Chaetomium globosum” value with Chaetomium globosum is reported as 50 ppm. Also, the “Minimum inhibitory concentrations Penicillium brevicaule” value in the series on Penicillium brevicaule is 20 ppm. Also, the MIC with Penicillium brevicaule was in the range of 10 to 100 µg/mL (≈ 33.5 to 335 µM).
In the case of `O=S1(=O)CSC(Oc2ccc(Cl)cc2)=N1` [Example 93], in the series on Aspergillus Niger, the “Minimum inhibitory concentrations Aspergillus Niger” value came to 100 ppm. In addition, the “Minimum inhibitory concentrations Chaetomium globosum” value in the series on Chaetomium globosum came out at 50 ppm. For the same compound, in the series on Penicillium brevicaule, the “Minimum inhibitory concentrations Penicillium brevicaule” value worked out at 20 ppm and the MIC was 10 to 100 µg/mL (≈ 37.9 to 379 µM).
As for `Nc1ccc(OC2=NS(=O)(=O)CS2)c(Cl)c1Cl` [Example 14], in the series with Plasmopara viticola, the pest or weed control at 250 g/ha was at least 90%. Further, in the series with Plutella, the “Destruction in % after 7^d” value came out at 95%.
